In US9738634B2, “Heterocyclic amide compound and herbicide” (SYNGENTA PARTICIPATIONS AG, priority 2013, dated 2017):

What was measured:
Format in all cases: in vivo
[1] = test system: bulrush; test: Test Example 2: weedkilling efficacy, growth period weed treatment in the submerged state; B: bulrush
Experimental: (§1) Weedkilling efficacy test on growth period weed treatment in the submerged state
(§2) Alluvial soil was introduced into 1/10,000 Are Wagner pots, and 4 cm depth submerged conditions were created by addition of water and mixing. Seeds of barnyard grass, bulrush and oval-leafed pondweed were mixed and sown into the aforesaid cups, and the plants were grown by placing in a greenhouse at 25 to 30° C. When the barnyard grass, bulrush and oval-leafed pondweed had reached the 1-2 leaf stage, emulsions of compounds of the present invention prepared according to compounding example 2 were diluted with water to give the specified dosages and applied onto the water surface. 3 weeks after the pesticide treatment the effect on each type of plant was investigated on the basis of the assessment criteria of test example 1.
(§3) A: barnyard grass, B: bulrush, C: oval-leafed pondweed, D: crabgrass, E: green foxtail, F: barnyard grass, G: wild oat, H: black-grass, I: Italian ryegrass, J: common wind-grass, K: Indian mallow, L: redroot pigweed, M: fig-leafed goosefoot, N: chickweed, O: catchweed, p: birds-eye speedwell, a: transplanted rice, b: directly sown rice, c: corn, d: soybean, e: wheat, f: beet, g: rapeseed
(§4) Further, pesticide dosage (g/ha) indicates the concentration regulated such that treatment was with only the stated number of grams (g), when calculated per hectare (ha).

[2] = test system: barnyard grass; test: Test Example 2: weedkilling efficacy, growth period weed treatment in the submerged state; A: barnyard grass
Experimental: as §1, §2, §3, §4

[3] = test system: oval-leafed pondweed; test: Test Example 1: weedkilling efficacy, preemergent weed treatment in the submerged state; C: oval-leafed pondweed
Excerpt: (§5) Weedkilling efficacy test on preemergent weed treatment in the submerged state
(§6) Alluvial soil was introduced into 1/10,000 Are Wagner pots, and 4 cm depth submerged conditions were created by addition of water and mixing. Seeds of barnyard grass, bulrush and oval-leafed pondweed were mixed and sown into the aforesaid cups, then 2.5 leaf stage rice seedlings were transplanted. On the sowing day, emulsions of compounds of the present invention prepared according to compounding example 2 were diluted with water to give the specified dosages and applied onto the water surface. The plants were grown after placing the cups in a greenhouse at 25 to 30° C. 3 weeks after the pesticide treatment the effect on each type of plant was investigated on the basis of the following assessment criteria.
as §3, §4

[4] = test system: bulrush; test: Test Example 1: weedkilling efficacy, preemergent weed treatment in the submerged state; B: bulrush
Excerpt: as §5, §6, §3, §4

[5] = test system: transplanted rice; test: Test Example 1: preemergent weed treatment in the submerged state, effect on crop; a: transplanted rice
Excerpt: as §5, §6, §3, §4

[6] = test system: barnyard grass; test: Test Example 1: weedkilling efficacy, preemergent weed treatment in the submerged state; A: barnyard grass
Excerpt: as §5, §6, §3, §4

[7] = test system: oval-leafed pondweed; test: Test Example 2: weedkilling efficacy, growth period weed treatment in the submerged state; C: oval-leafed pondweed
Experimental: as §1, §2, §3, §4

SMILES	B (bulrush) weedkilling efficacy grade ([1]; treatment dosage 252 g/ha)	A (barnyard grass) weedkilling efficacy grade ([2]; treatment dosage 252 g/ha)	C: oval-leafed pondweed, weed kill grade ([3]; treatment dosage 252 g/ha)	B: bulrush, weed kill grade ([4]; treatment dosage 252 g/ha)	a: transplanted rice, effect on crop grade ([5]; treatment dosage 252 g/ha)	A: barnyard grass, weed kill grade ([6]; treatment dosage 252 g/ha)	C (oval-leafed pondweed) weedkilling efficacy grade ([7]; treatment dosage 252 g/ha)	B (bulrush) weedkilling efficacy grade ([1]; treatment dosage 320 g/ha)	A (barnyard grass) weedkilling efficacy grade ([2]; treatment dosage 320 g/ha)	C: oval-leafed pondweed, weed kill grade ([3]; treatment dosage 320 g/ha)	B: bulrush, weed kill grade ([4]; treatment dosage 320 g/ha)	a: transplanted rice, effect on crop grade ([5]; treatment dosage 320 g/ha)	A: barnyard grass, weed kill grade ([6]; treatment dosage 320 g/ha)	C (oval-leafed pondweed) weedkilling efficacy grade ([7]; treatment dosage 320 g/ha)
CC(C)(C(=O)Nc1cccc(C2CC2)n1)N1COCN(c2ccccc2)C1=O [A-2-46]	2 (weed kill ratio 20% or more, less than 40%)	4 (weed kill ratio 70% or more, less than 90%)	3 (weed kill ratio 40% or more, less than 70%)	4 (weed kill ratio 70% or more, less than 90%)	1 (weed kill ratio 5% or more, less than 20%)	5 (weed kill ratio 90% or more, (practically complete withering))	0 (weed kill ratio 5% or less (practically no effect))							
CC(C)(C(=O)Nc1cc(C#N)ccn1)N1COCN(c2ccccc2)C1=O [A-2-48]	5 (weed kill ratio 90% or more, (practically complete withering))	4 (weed kill ratio 70% or more, less than 90%)	5 (weed kill ratio 90% or more, (practically complete withering))	5 (weed kill ratio 90% or more, (practically complete withering))	0 (weed kill ratio 5% or less (practically no effect))	5 (weed kill ratio 90% or more, (practically complete withering))	5 (weed kill ratio 90% or more, (practically complete withering))							
CC(C)(C(=O)Nc1cc(-c2ccccc2)ccn1)N1COCN(c2ccccc2)C1=O [A-2-49]	4 (weed kill ratio 70% or more, less than 90%)	4 (weed kill ratio 70% or more, less than 90%)	5 (weed kill ratio 90% or more, (practically complete withering))	5 (weed kill ratio 90% or more, (practically complete withering))	1 (weed kill ratio 5% or more, less than 20%)	5 (weed kill ratio 90% or more, (practically complete withering))	4 (weed kill ratio 70% or more, less than 90%)							
CC(C)(C(=O)Nc1cccc(-c2ccccc2)n1)N1COCN(c2ccccc2)C1=O [A-2-50]	4 (weed kill ratio 70% or more, less than 90%)	4 (weed kill ratio 70% or more, less than 90%)	5 (weed kill ratio 90% or more, (practically complete withering))	5 (weed kill ratio 90% or more, (practically complete withering))	0 (weed kill ratio 5% or less (practically no effect))	5 (weed kill ratio 90% or more, (practically complete withering))	3 (weed kill ratio 40% or more, less than 70%)							
COc1cccc(NC(=O)C(C)(C)N2COCN(c3ccccc3)C2=O)n1 [A-2-52]	5 (weed kill ratio 90% or more, (practically complete withering))	4 (weed kill ratio 70% or more, less than 90%)	5 (weed kill ratio 90% or more, (practically complete withering))	5 (weed kill ratio 90% or more, (practically complete withering))	1 (weed kill ratio 5% or more, less than 20%)	5 (weed kill ratio 90% or more, (practically complete withering))	2 (weed kill ratio 20% or more, less than 40%)							
CC(C)(C(=O)Nc1cc(OC(F)F)ccn1)N1COCN(c2ccccc2)C1=O [A-2-53]								5 (weed kill ratio 90% or more, (practically complete withering))	5 (weed kill ratio 90% or more, (practically complete withering))	5 (weed kill ratio 90% or more, (practically complete withering))	5 (weed kill ratio 90% or more, (practically complete withering))	1 (weed kill ratio 5% or more, less than 20%)	5 (weed kill ratio 90% or more, (practically complete withering))	5 (weed kill ratio 90% or more, (practically complete withering))
